From patent US11014952B2, “Stable hydrolysis-resistant synthetic polyribosylribitolphosphate derivatives as vaccines against Haemophilus influenzae type b” (MAX-PLANCK-GESELLSCHAFT ZUR FÖRDERUNG DER WISSENSCHAFTEN …, priority 2016, dated 2021)

How the values were obtained:
[1] = tested on: antibodies raised by immunization with compound 94; assay: Glycan array: binding of printed saccharides to antibodies raised by immunization with compound 94; design: species or system rabbit; settings: sera of rabbits immunized with conjugate 94 with and without Alhydrogel (FIG. 17C, D)
Experimental: Four groups with four rabbits per each group were immunized in a prime-boost regime with unadjuvanted conjugate 94 containing 5 μg saccharide 29 or conjugate 94 (containing 5 μg Hib saccharide 29) adjuvanted with Alhydrogel. The negative control group received PBS/Alhydrogel only. The positive control group received the approved vaccine ActHIB® (5 μg PRP, corresponding to half the human dose), a conjugate of native PRP to tetanus toxoid (TT). Preimmune serum and antiserum of bleeding day 21 (following two immunizations) were taken and analyzed on a glycan array. The ActHIB-specific serum was obtained after three administrations in contrast to two immunisations of the HIB analogues of the present invention.
(§1) Saccharides in PBS were printed on N-Hydroxy succinimide activated glass slides (CodeLink slides, Surmodics) using an S3 microarray spotter (Scienion). Slides were incubated overnight in a humidity saturated chamber, quenched for 2 h with 100 mM ethanolamine, 50 mM sodium phosphate, pH 7.5, washed with water and dried.
(§2) For incubation, slides were blocked for 1 h with 3% (w/v) BSA-PBS, washed with PBS and water, and dried by centrifugation. A 64 well incubation grid was attached. Sera were diluted in 3% BSA-PBS, 0.1% (v/v) Tween-20, incubated at 37° C. for 15 min, and centrifuged for 2 min at 3220 rpm. Serum dilutions were applied to the slide and incubated for 1 h at room temperature. Wells were washed three times with PBS+0.1% Tween-20 (PBS-T). Secondary antibodies (anti-rabbit IgG FITC, anti-rabbit IgM AlexaFluor 647, anti-human IgG-Fc AlexaFluor 488 and IgM AlexaFluor 594) were incubated on the slides for 30 min at r.t. Wells were washed twice with PBS-T, the incubation grid was removed, and the slide washed with PBS and water. After drying by centrifugation, the slide was scanned using a GenePix 4300A (Molecular Devices) microarray reader.
The primary immune response was assessed by glycan array screening of serum samples retrieved at day 0, day 21 and day 35. 2′-Methoxyribosylribitolphosphate dimer 19, 2′-methoxyribosylribitolphosphate dimer 24, 2′-Methoxyribosylribitolphosphate tetramer 29, 2′-deoxyribosylribitolphosphate tetramer 53 and 2′-dimethyl-aminocarbonylribosylribitolphosphate 62 as well as natural Hib PRP were printed on NHS ester-activated microarray slides. After immunization with conjugate 94 adjuvanted with Alhydrogel and without adjuvant, antibodies of the IgG and IgM subtypes against the Hib PRP derivatives 19, 24, 29, 53 and 62 as well as against the natural Hib PRP polysaccharide in all immunized rabbits were detected.

[2] = tested on: anti-Hib antibodies present in human reference serum; assay: Glycan array analysis with Hib human reference serum; assay type: binding; settings: for inhibition of binding by natural Hib PRP: Hib PRP inhibitor present (FIG. 17A); for binding of anti-Hib antibodies to printed saccharide: no inhibitor (FIG. 17A)
Experimental: as §1, §2

[3] = tested on: anti-Hib antibodies in rabbit typing serum; assay: Glycan array analysis with rabbit typing serum; assay type: binding; settings: for inhibition of binding by natural Hib PRP: Hib PRP inhibitor present (FIG. 17B); for binding of anti-Hib antibodies to printed saccharide: no inhibitor (FIG. 17B)
Experimental: as §1, §2

[4] = Stability in presence of aluminum hydroxide (Alhydrogel), aluminum phosphate, phosphate buffer or water, HPLC; assay type: physicochemical; settings: for cleavage to smallest fragments observed after: Alhydrogel
Experimental: Having established the stability data of the control Hib CPS, then the stability of Hib CPS in aluminum hydroxide was investigated, where it is known to be unstable in a vaccine formulation {0.5 mg Hib CPS, 3 mL Alhydrogel® (Brentag) and 22 mL milli-Q water} at various temperatures {37° C. (A1) and rt (A3)}. At 37° C. cleavage to smallest fragments were observed after 2 days and at rt this pattern was observed after day 7 (FIG. 6). From this experiment it was confirmed that, Hib CPS decomposes to 2 and 3-O phosphate fragments in 2 to 7 days depending on temperature in Aluminum hydroxide the most common adjuvant used in commercial vaccines.
Stability studies of synthesized 2′-methoxyribosylribitolphosphate dimer 16 were conducted in presence of various adjuvants. As a first step stability of 16 was studied using Al(OH)3, AlPO4 and water at various temperatures {37° C. (A1), 2-8° C. (A2), rt (A3) and 70° C. (A4)}.
The amount of Al(OH)3 and AlPO4 used for this study was similar to the amount present in commercial Hib vaccines. Compounds 16 and 8 were used as reference since decomposition of dimer 16 should lead to monomer 8. Every 24 h 40 μL of solution was aliquoted from each vial and centrifuged for 4 min at 5000 rpm. Supernatant (25 μL) was taken for HPLC analysis. […] From this study it was clear that 2′-methoxyribosylribitol dimer 16 was stable at 37° C. (A1), 2-8° C. (A2), r.t. (A3) and at 70° C.
Stability studies of synthesized 2′-methoxyribosylribitolphosphate tetramer bearing a linker 29 were conducted in presence of various adjuvants. As a first step stability of 29 was studied using Al(OH)3, phosphate buffer (PBS) and water at various temperatures {2-8° C. (A2), and r.t. (A3)}.
The amount of Al(OH)3 used for this study was similar to the amount present in commercial Hib vaccines. Compounds 29, 16 and 8 were used as reference since decomposition of tetramer 29 should lead to dimer 16 and monomer 8. Every 24 h 40 μL of solution was aliquoted from each vial and centrifuged for 4 min at 5000 rpm. Supernatant (25 μL) was taken for HPLC analysis. […] From this study it was clear that 2′-methoxyribosylribitolphosphate tetramer 29 is stable in presence of Al(OH)3, in phosphate buffer (PBS) and in water at 2-8° C. (A2) and r.t. (A3).

[5] = Stability in basic medium (0.1 M NaOH); assay type: physicochemical; settings: for cleaved completely after: aqueous basic conditions as applied in Example H-1 (0.1 M NaOH)
Experimental: Stability study of the inventive saccharides is critical for the development of stable liquid Hib glycoconjugate vaccines. As a control we examined first the stability and cleavage of Hib polyribosylribitolphosphate capsular polysaccharide (CPS). Accordingly, Hib CPS was fragmented using standard procedures as described in Vaccine, 2000, 18, 1982-1993: 1 mg Hib CPS in 0.43 mL of 0.1 M NaOH, 20 h. Fragments obtained after purification (filtered through 30 kDa Amicon filters followed by desalting) were analyzed by ^1H NMR, HPLC and HRMS.
The stability of dimer 16 was further investigated under aqueous basic conditions as applied in Example H-1. From the HPLC chromatogram in FIG. 13D it was concluded that dimer 16 got cleaved completely after 4 days, while the natural Hib CPS got already cleaved completely within 20 hours.
The stability of tetramer 29 was further investigated under aqueous basic conditions as applied in Example H-1. From the HPLC chromatogram in FIG. 13A it was concluded that tetramer 29 got cleaved completely after 4 days, while the natural Hib CPS got already cleaved completely within 20 hours.

Compound | antibodies of the IgG and IgM subtypes against the saccharide after immunization with conjugate 94 [1] | inhibition of binding by natural Hib PRP [2] | binding of anti-Hib antibodies to printed saccharide [2] | inhibition of binding by natural Hib PRP [3] | binding of anti-Hib antibodies to printed saccharide [3] | cleaved completely after ([5]; HPLC) | other results
COC1C(OP(=O)(O)OCCCCCN)[C@@H](CO)O[C@H]1OCC(O)C(O)C(O)COP(=O)(OCc1ccccc1)OC1C(OC)[C@H](OCC(O)C(O)C(O)CO)O[C@@H]1CO (stereo partly drawn) [Compound 24, 2′-methoxyribosylribitolphosphate dimer] | detected | inhibits the binding | bind | inhibits the binding | bind | – | –
2′-Methoxyribosylribitolphosphate tetramer [Compound 29] | detected | inhibits the binding | bind | inhibits the binding | bind | 4 days | stability ([4]; Al(OH)3, phosphate buffer (PBS) and water, 2-8° C. (A2)): stable; decomposition after 7 days (HPLC) ([4]; Al(OH)3, phosphate buffer (PBS) and water, 2-8° C. and r.t.): no decomposition was observed; stability ([4]; Al(OH)3, phosphate buffer (PBS) and water, r.t. (A3)): stable
COC1C(O)[C@@H](CO)O[C@H]1OCC(O)C(O)C(O)COP(=O)(O)OC1C(OC)[C@H](OCC(O)C(O)C(O)CO)O[C@@H]1CO (stereo partly drawn) [Compound 16, 2′-methoxyribosylribitolphosphate dimer] | – | – | – | – | – | 4 days | stability ([4]; Al(OH)3, AlPO4 and water, 2-8° C. (A2), 7 days): stable; stability ([4]; Al(OH)3, AlPO4 and water, 37° C. (A1), 7 days): stable; decomposition after 7 days (HPLC) ([4]; Al(OH)3, AlPO4 and water, 37° C., 2-8° C., rt and 70° C.): no decomposition was observed; stability ([4]; Al(OH)3, AlPO4 and water, 70° C., 7 days): stable; stability ([4]; Al(OH)3, AlPO4 and water, r.t. (A3), 7 days): stable
Hib polyribosylribitolphosphate capsular polysaccharide [Hib CPS, reference compound] | detected | – | – | – | – | – | cleavage to smallest fragments observed after ([4]; 37° C.): 2 days; cleavage to smallest fragments observed after ([4]; rt): 7 days; cleavage products in basic medium ([5]; 0.1 M NaOH, 20 h, 1H NMR, HPLC, HRMS): cleaved to its smallest 2 and 3-0 phosphate fragments; time to complete hydrolysis / cleavage under basic conditions ([5]; 0.1 M sodium hydroxide solution): ≤ 20 h; stability in basic aqueous media or in the presence of aluminum salts ([5]; basic aqueous media, suspensions with aluminum phosphate or aluminum hydroxide): hydrolyzes within one day
2′-deoxyribosylribitolphosphate tetramer [Compound 53] | detected | not | bind | not | bind | – | –
COC1C(O)[C@@H](CO)O[C@H]1OCC(O)C(O)C(O)COP(=O)(O)OC1C(OC)[C@H](OCC(O)C(O)C(O)COP(=O)(O)OCCCCCN)O[C@@H]1CO (stereo partly drawn) [Compound 19, 2′-Methoxyribosylribitolphosphate dimer] | detected | inhibits the binding | bind | inhibits the binding | bind | – | –
